Experimental findings from PMC7126094 (Bioorganic & Medicinal Chemistry Letters, 2019) are described below.

“Also recorded” adds a separate entry of the source. Read-outs that look alike come from different tables or passages of the source.

For series [1] the following is noted: rat, microsomes.
For series [2], the system named is NIH 3T3: mouse embryonic fibroblast cell line.
In series [3] the test system is VERO: African green monkey kidney cell line.
The test system of series [4] is HFL-1: human embryonic lung cell line.
Another series addresses hERG (Homo sapiens, UniProt Q12809). In words: hERG binding assay. (hERG is a cardiac potassium channel; its block is linked to QT prolongation.)
The conditions of series [5]: mouse, microsomes.
The conditions of series [6]: human, microsomes.
The test system of series [7] is L929: mouse fibroblast cell line.
The subject of series [8] is CHO-K1: Chinese hamster ovary cell line.
Another series can be described thus: in vitro. The note with it: African green monkey.

Chain of hERG (Q12809 whole entry): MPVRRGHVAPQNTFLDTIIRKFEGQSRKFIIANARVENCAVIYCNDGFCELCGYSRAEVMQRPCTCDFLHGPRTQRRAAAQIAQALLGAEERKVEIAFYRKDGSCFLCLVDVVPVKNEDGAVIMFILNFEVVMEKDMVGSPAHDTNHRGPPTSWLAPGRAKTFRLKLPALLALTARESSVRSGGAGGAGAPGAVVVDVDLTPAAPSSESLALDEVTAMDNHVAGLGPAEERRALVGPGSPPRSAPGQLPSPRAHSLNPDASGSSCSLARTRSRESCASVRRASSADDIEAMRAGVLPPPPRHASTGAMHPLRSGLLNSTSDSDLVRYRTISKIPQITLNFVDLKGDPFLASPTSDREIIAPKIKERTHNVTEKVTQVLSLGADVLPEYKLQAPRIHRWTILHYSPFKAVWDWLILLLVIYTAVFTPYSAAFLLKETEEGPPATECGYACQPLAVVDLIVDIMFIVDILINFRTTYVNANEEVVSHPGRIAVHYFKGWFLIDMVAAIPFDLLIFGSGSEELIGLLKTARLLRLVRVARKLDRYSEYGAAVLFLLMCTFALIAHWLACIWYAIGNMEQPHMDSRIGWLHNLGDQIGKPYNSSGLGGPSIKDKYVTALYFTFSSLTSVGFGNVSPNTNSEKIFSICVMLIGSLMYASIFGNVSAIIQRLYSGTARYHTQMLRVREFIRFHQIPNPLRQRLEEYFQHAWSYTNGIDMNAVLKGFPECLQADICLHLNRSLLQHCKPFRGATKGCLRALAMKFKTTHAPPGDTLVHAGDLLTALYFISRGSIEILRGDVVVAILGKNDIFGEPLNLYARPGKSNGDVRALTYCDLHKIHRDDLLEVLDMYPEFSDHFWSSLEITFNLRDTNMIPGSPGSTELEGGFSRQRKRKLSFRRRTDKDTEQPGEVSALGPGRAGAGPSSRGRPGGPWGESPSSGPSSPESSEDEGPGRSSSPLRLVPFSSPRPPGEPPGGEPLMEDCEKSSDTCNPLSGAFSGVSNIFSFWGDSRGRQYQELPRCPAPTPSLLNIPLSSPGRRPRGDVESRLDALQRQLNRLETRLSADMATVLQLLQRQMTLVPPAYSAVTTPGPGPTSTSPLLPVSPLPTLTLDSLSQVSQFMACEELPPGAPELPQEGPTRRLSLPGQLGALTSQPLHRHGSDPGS

In the case of “5,6,8-Tichloro-2-((2,4-difluorophenyl)amino)-3-isobutyrylquinolin-4(1H)-one [Compound 6y]”, in the series with MERS-CoV (read-out: IC50 (MERS-CoV inhibitory activity)), the IC50 worked out at 0.129 ± 0.026 µM.

Turning to `CC(=O)c1c(NC(C)C)[nH]c2c(C(C)C)cccc2c1=O` [Compound 6a, 3-Aetyl-8-isopropyl-2-(isopropylamino)quinolin-4(1H)-one], the “inhibitory effect on MERS-CoV (in words)” value with MERS-CoV is reported as “no inhibitory effects”.

As for `CC(=O)c1c(NC(C)C)[nH]c2c(C)cc(C)cc2c1=O` [Compound 6b, 3-Aetyl-2-(isopropylamino)-6,8-dimethylquinolin-4(1H)-one], the “inhibitory effect on MERS-CoV (in words)” value in the series on MERS-CoV is reported as “no inhibitory effects”.

As for `CC(C)Nc1[nH]c2c(C(F)(F)F)cc(Cl)cc2c(=O)c1C(=O)c1ccccc1` [Compound 6c, 3-Bnzoyl-6-chloro-2-(isopropylamino)-8-(trifluoromethyl)quinolin-4(1H)-one], the “inhibitory effect on MERS-CoV (in words)” value with MERS-CoV is listed as “detrimental for inhibitory effect; also recorded: completely abolished activity”.

Turning to `CC(=O)c1c(N2CCCCC2)[nH]c2c(F)cc(F)cc2c1=O` [Compound 6i, 3-Acetyl-6,8-difluoro-2-(piperidin-1-yl)quinolin-4(1H)-one], the “inhibitory effect on MERS-CoV (in words)” value with MERS-CoV is given as “no inhibitory effect”.

Consider `CC(=O)c1c(N2CCOCC2)[nH]c2c(F)cc(F)cc2c1=O` [Compound 6j, 3-Acetyl-6,8-difluoro-2-morpholinoquinolin-4(1H)-one], for which the “inhibitory effect on MERS-CoV (in words)” value in the series on MERS-CoV is reported as “no inhibitory effect”.

For `CCCCNc1[nH]c2c(F)cc(F)cc2c(=O)c1C(C)=O` [Compound 6k, 3-Acetyl-2-(butylamino)-6,8-difluoroquinolin-4(1H)-one], the “inhibitory effect on MERS-CoV (in words)” value with MERS-CoV is on record as “no inhibitory effect”.

For the compound `COc1cccc(Nc2[nH]c3c(F)cc(F)cc3c(=O)c2C(C)=O)c1` [Compound 6p, 3-Acetyl-6,8-difluoro-2-((3-methoxyphenyl)amino)quinolin-4(1H)-one], in the series with MERS-CoV, the “inhibitory effect on MERS-CoV (in words)” value is listed as “no inhibitory effects”.

As to `COc1ccc(Nc2[nH]c3c(F)cc(F)cc3c(=O)c2C(C)=O)cc1` [Compound 6q, 3-Acetyl-6,8-difluoro-2-((4-methoxyphenyl)amino)quinolin-4(1H)-one], the “inhibitory effect on MERS-CoV (in words)” value in the series on MERS-CoV is “no inhibitory effects”.

In the case of `CC(C)C(=O)c1c(Nc2ccc(F)c(F)c2F)[nH]c2c(F)cc(F)cc2c1=O` [Compound 6u, 6,8-Difluoro-3-isobutyryl-2-((2,3,4-trifluorophenyl)amino)quinolin-4(1H)-one], the “metabolic stability (in words)” value in [1], in series [5] and in [6] was “good metabolic stability” in each case. Moreover, the “cytotoxicity (in words)” value in series [2], in [3], in series [4], in [7] and in [8] was “no cytotoxicity” each time. Also, on hERG, the “hERG binding affinity (in words)” value is “low hERG binding affinity”. The IC50 in the series “in vitro” was determined as 86.1 µM.

As usually defined, the IC50 is the concentration that gives 50% inhibition.
